The test system of assay [1] is NCI-H522. Kind of assay: Growth inhibition of human NCI-H522 cells at 1 x 10^-5 M after 24 hrs by MTT assay relative to control. Format: functional. To be noted: NCI-H522, 24 h, read-out: GI. Background: Tetrazolium assays rely on reduction of a dye to a coloured formazan, in cell work by metabolically active cells.
Assay [2] relates to HepG2. The experiment in a line: Growth inhibition of human HepG2 cells after 24 hrs by MTT assay. Format: functional, cell-based. Particulars: HepG2, 24 h.
A further assay relates to HEK-293T. Kind of assay: Growth inhibition of HEK293T cells after 24 hrs by MTT assay. Format: cell-based. Particulars: Homo sapiens.
Assay [3] deals with PA-1. Kind of assay: Growth inhibition of human PA1 cells at 1 x 10^-5 M after 24 hrs by MTT assay relative to control. Format: functional. Particulars: PA-1, 24 h, read-out: GI.
For assay [4], the system named is HCT-15. Kind of assay: Growth inhibition of human HCT15 cells at 1 x 10^-5 M after 24 hrs by MTT assay relative to control. Format: functional. To be noted: HCT-15, 24 h, read-out: GI.
Assay [5] deals with T47D. The experiment in a line: Growth inhibition of human T47D cells after 24 hrs by MTT assay. Format: functional, cell-based.
Assay [6] deals with T47D. The experiment in a line: Growth inhibition of human T47D cells at 1 x 10^-5 M after 24 hrs by MTT assay relative to control. Format: functional. Particulars: read-out: GI.
Assay [7] relates to HepG2. The experiment in a line: Growth inhibition of human HepG2 cells at 1 x 10^-5 M after 24 hrs by MTT assay relative to control. Format: functional. To be noted: HepG2, 24 h, read-out: GI.
For assay [8], the system named is HCT-15. Kind of assay: Growth inhibition of human HCT15 cells after 24 hrs by MTT assay. Format: functional, cell-based. To be noted: HCT-15, 24 h.
Assay [9] relates to NCI-H522. The experiment in a line: Growth inhibition of human NCI-H522 cells after 24 hrs by MTT assay. Format: functional, cell-based. To be noted: NCI-H522, 24 h.
The nature of assay [10]: Selectivity index, ratio of IC50 for HEK293T cells to IC50 for human HepG2 cells. Format: functional.
The test system of assay [11] is PA-1. The experiment in a line: Growth inhibition of human PA1 cells after 24 hrs by MTT assay. Format: functional, cell-based. To be noted: PA-1, 24 h.
Assay [12] in a line: Selectivity index, ratio of IC50 for HEK293T cells to IC50 for human T47D cells. Format: functional.
Assay [13] can be described thus: Selectivity index, ratio of IC50 for HEK293T cells to IC50 for human PA1 cells. Format: functional.
A short description of assay [14]: Selectivity index, ratio of IC50 for HEK293T cells to IC50 for human NCI-H522 cells. Format: functional.
Assay [15] is described as follows: Selectivity index, ratio of IC50 for HEK293T cells to IC50 for human HCT15 cells. Format: functional.

pIC50: −log10 of the molar value. Where only a bound is given, the exact number is not on record here.

As a reminder, the pIC50 is −log10 of the IC50, conventionally taken in molar units. A low value points to a high IC50. Take `O=P1(N(CCCl)CCCl)NCCCO1` (stereo unspecified) [CYCLOPHOSPHAMIDE ANHYDROUS]: the inhibition of growth at 10 µM in the assay on NCI-H522 [1] was 11%; in the assay with PA-1 [3], 24%; in the assay with HCT-15 [4] it was 10%; in the assay on T47D [6], 23%; in the assay with HepG2 [7] it was 22%. Besides, the negative-log IC50 (pIC50) is 4.28 in the assay with HepG2 [2]; less than 4.00 in the assay on HEK-293T; 4.16 with T47D [5]; 4.12 in the assay on HCT-15 [8]; 4.16 in the assay on NCI-H522 [9].

Regarding `O=C1c2nc[nH]c2C(=O)N1CCN1C(=O)c2nc[nH]c2C1=O`, the “Ratio IC50” value in [10], in assay [12], in assay [13], in [14] and in assay [15] was 2.5 - 4.5 each time. Besides, the pIC50 with PA-1 [11] is 4.76; with HepG2 [2] it was 4.62; in the assay on HEK-293T it was 4.20; with T47D [5], 4.72; in the assay with HCT-15 [8] it was 4.75; in the assay on NCI-H522 [9], 4.48. Besides, the inhibition of growth at 10 µM in the assay on NCI-H522 [1] came out at 56%; in the assay with PA-1 [3], 24%; with HCT-15 [4] it was 33%; with T47D [6] it was 21%; with HepG2 [7] it was 38%.

As to `O=C1C2CC=CCC2C(=O)N1c1ccc(S(=O)(=O)c2ccc(N3C(=O)C4CC=CCC4C3=O)cc2)cc1` (stereo unspecified), the “Ratio IC50” value in assay [10], in [12], in assay [13], in [14] and in assay [15] was 2.5 - 4.5 each time. The pIC50 with PA-1 [11] was 4.49; with HepG2 [2], 4.74; in the assay with HEK-293T, 4.37; in the assay with T47D [5] it was 4.51; with HCT-15 [8] it was 4.84; with NCI-H522 [9] it was 4.43. In addition, the inhibition of growth at 10 µM in the assay with NCI-H522 [1] turned out to be 56%; with PA-1 [3] it was 41%; in the assay on HCT-15 [4] it was 51%; in the assay on T47D [6] it was 41%; with HepG2 [7], 19%.

Regarding `O=C1C2CCCCC2C(=O)N1CCOCCOCCN1C(=O)C2CCCCC2C1=O` (stereo unspecified), the pIC50 was 4.72 in the assay with PA-1 [11]; 4.56 in the assay on HepG2 [2]; less than 4.00 in the assay with HEK-293T; 4.80 in the assay on T47D [5]; 4.62 with HCT-15 [8]; 4.49 in the assay with NCI-H522 [9]. Besides, the inhibition of growth at 10 µM in the assay with NCI-H522 [1] is 29%; in the assay with PA-1 [3], 25%; with HCT-15 [4], 51%; in the assay with T47D [6], 31%; in the assay with HepG2 [7], 37%.

With `O=C1C2CCCCC2C(=O)N1c1ccc(S(=O)(=O)c2ccc(N3C(=O)C4CCCCC4C3=O)cc2)cc1` (stereo unspecified), the “Ratio IC50” value in assay [10], in assay [12], in assay [13], in assay [14] and in [15] was 2.5 - 4.5 throughout. Further, the pIC50 in the assay on PA-1 [11] was 4.65; in the assay on HepG2 [2] it was 4.77; in the assay with HEK-293T, 4.36; in the assay with T47D [5], 4.90; in the assay with HCT-15 [8], 4.20; in the assay with NCI-H522 [9] it was 4.71. Besides, the inhibition of growth at 10 µM in the assay on NCI-H522 [1] came out at 49%; with PA-1 [3], 36%; in the assay with HCT-15 [4] it was 65%; in the assay on T47D [6], 51%; in the assay on HepG2 [7], 57%.

For the molecule `O=C1C2CC=CCC2C(=O)N1CCOCCOCCN1C(=O)C2CC=CCC2C1=O` (stereo unspecified), the “Ratio IC50” value in assay [10], in assay [12], in assay [13], in [14] and in assay [15] was 2.5 - 4.5 throughout. Moreover, the pIC50 in the assay with PA-1 [11] was 4.73; in the assay with HepG2 [2], 4.76; in the assay with HEK-293T it was 4.35; with T47D [5], 4.84; with HCT-15 [8] it was 4.68; with NCI-H522 [9], 4.42. Besides, the inhibition of growth at 10 µM turned out to be 59% with NCI-H522 [1]; 31% in the assay on PA-1 [3]; 45% in the assay on HCT-15 [4]; 51% in the assay on T47D [6]; 53% with HepG2 [7].

Consider `O=C1c2nccnc2C(=O)N1CCCC1OCC2(CO1)COC(CCCN1C(=O)c3nccnc3C1=O)OC2` (stereo unspecified), for which the “Ratio IC50” value in [10], in assay [12], in [13], in assay [14] and in [15] was 2.5 - 4.5 each time. Further, the pIC50 is 4.36 in the assay on PA-1 [11]; 4.91 in the assay on HepG2 [2]; 4.25 in the assay with HEK-293T; 4.70 with T47D [5]; 4.64 with HCT-15 [8]; 4.55 in the assay on NCI-H522 [9]. Also, the inhibition of growth at 10 µM was 43% in the assay with NCI-H522 [1]; 20% in the assay on PA-1 [3]; 35% in the assay with HCT-15 [4]; 49% in the assay with T47D [6]; 53% in the assay with HepG2 [7].

The record behind these values is ChEMBL document CHEMBL4041541, “Solvent free, catalyst free, microwave or grinding assisted synthesis of bis-cyclic imide derivatives and their evaluation for anticancer activity” (Bioorg Med Chem Lett, 2017).
